Measured values taken from the NIST ThermoML archive (doi:10.1021/je800920d).
Numbers after ± are expanded uncertainties.

Legend:
[1] = Crystal; DTA
[2] = Molar enthalpy of transition or fusion; settings: Crystal; DSC

**Q.** With `COc1ccc2cc([C@H](C)C(=O)O)ccc2c1` [(S)-(+)-naproxen] as the compound, how does the Normal melting temperature [1] read?
**A.** The Normal melting temperature was 154.6 ± 0.5 °C.

**Q.** And the “Molar enthalpy of transition or fusion” value [2]?
**A.** Its value is 7.5 ± 0.215 kcal/mol.
